Values quoted from earlier work, collected in patent US20230405017A1, “METHODS OF USING RHO KINASE INHIBITORS TO TREAT FRONTOTEMPORAL DEMENTIA” (Woolsey Pharmaceuticals, Inc., priority 2020, published 2023).

Details: in vivo; 1-hydroxy (M3) metabolite of fasudil

For O=S(=O)(c1cccc2c(O)nccc12)N1CCCNCC1 [M3], the half-life is given as “about 8 hours”.
